Assays:
Type in all cases: cell-based
LPA1 receptor [1] = target: T1, LPA1 receptor (Mus musculus, UniProt P61793); test: Heterologous (PMA) / homologous (LPA) desensitization of LPA-induced calcium response, LPA1 cells; conditions: preincubation 10 min, washed, challenge 1 μM LPA, LPA1 cells
T1 construct: expressed in transfected cells
Experimental: This procedure has been described previously. Briefly, cells were loaded with 2.5 μM Fura-2 AM in Krebs–Ringer–Hepes containing 0.05% bovine serum albumin (pH 7.4) for 1 h at 37°C and then washed to eliminate unincorporated indicator. Determinations were carried in an AMINCO-Bowman Series 2 luminescence spectrometer, employing 340 and 380 nm excitation wavelengths and an emission wavelength of 510 nm; chopper interval was 0.5 sec. The intracellular calcium concentration was calculated as described by Grynkiewicz et al.. In the experiments where prolonged incubation was required (resensitization studies), cells were stimulated, washed, and the incubation was continued in the presence of Fura-2 AM, to avoid dye depletion.
Agonists-mediated decreases occurred in a concentration-dependent fashion, with a maximum at the concentration of ~ 100 nM. […] It is worth noticing that the shift in the curves was more pronounced in LPA1- or LPA3-expressing cells, than in those that expressed the LPA2 subtype.
Plotted are the increases in calcium as the percentage of that obtained in cells preincubated without any agent as mean ± S. E. M. of 6 experiments using different cell preparations.

LPA2 receptor = LPA2 receptor (Homo sapiens, UniProt Q9HBW0); test: LPA2 receptor phosphorylation ([32P]Pi labeling, immunoprecipitation)
Chain of LPA2 receptor (Q9HBW0 whole entry): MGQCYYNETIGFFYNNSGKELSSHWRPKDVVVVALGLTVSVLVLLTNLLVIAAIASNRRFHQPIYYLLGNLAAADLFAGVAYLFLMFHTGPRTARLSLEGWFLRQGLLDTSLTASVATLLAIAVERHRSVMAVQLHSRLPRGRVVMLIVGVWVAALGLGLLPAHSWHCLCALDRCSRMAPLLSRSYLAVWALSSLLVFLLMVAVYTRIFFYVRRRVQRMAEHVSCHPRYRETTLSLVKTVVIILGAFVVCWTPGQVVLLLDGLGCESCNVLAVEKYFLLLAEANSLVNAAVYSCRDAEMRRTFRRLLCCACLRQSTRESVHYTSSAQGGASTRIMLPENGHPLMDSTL
Experimental: (§1) The procedure was very similar to that previously described to study LPA1 receptor phosphorylation. In brief, cells were incubated in phosphate-free Dulbecco’s modified Eagle’s medium containing 100 μCi/ml [^32P]Pi for 3 h at 37°C. LPA1- and LPA2-expressing cells were cultured in 6 well plates, whereas those expressing LPA3 receptors were cultured in 10 cm dishes. Labeled cells were stimulated with the agents tested and then washed twice with ice-cold phosphate buffered saline and solubilized in buffer containing 10 mM Tris, 150 mM NaCl, 1% sodium cholate, 1% Nonident P40, protease and phosphatase inhibitors, pH 7.4 [11, 12, 14]. The lysates were incubated overnight with protein A-agarose and anti-GFP serum with constant agitation at 4°C. Samples were washed and the pellets containing the immunocomplexes were solubilized in Laemmli’s sample buffer containing 5% β-mercaptoethanol. Proteins were separated using 10% SDS-PAGE and electrotransferred onto polyvinyliden fluoride membranes. Receptor phosphorylation was analyzed with a Molecular Dynamics Typhoon PhosphorImager and the ImageJ software (http://rsb.info.nih.gov/ij/).

LPA1 receptor [2] = target: T1, LPA1 receptor; test: LPA1 receptor phosphorylation ([32P]Pi labeling, immunoprecipitation)
Experimental: as §1

T1 sequence (P61793 whole entry): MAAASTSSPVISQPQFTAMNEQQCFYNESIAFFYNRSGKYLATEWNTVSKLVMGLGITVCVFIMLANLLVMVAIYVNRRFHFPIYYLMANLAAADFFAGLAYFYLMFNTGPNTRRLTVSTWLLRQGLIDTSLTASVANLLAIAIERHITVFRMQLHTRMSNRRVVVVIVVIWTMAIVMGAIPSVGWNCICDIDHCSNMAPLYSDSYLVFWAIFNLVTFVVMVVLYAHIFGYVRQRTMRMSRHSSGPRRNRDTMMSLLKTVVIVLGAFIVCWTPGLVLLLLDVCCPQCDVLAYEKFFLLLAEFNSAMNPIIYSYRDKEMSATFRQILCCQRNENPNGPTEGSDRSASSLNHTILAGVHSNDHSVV

CCCCCCCC/C=C\CCCCCCCC(=O)OC[C@@H](O)COP(=O)(O)O [LPA]
concentration giving maximum homologous desensitization (LPA1 receptor [1]): ~ 100 nM | time to maximum receptor phosphorylation (LPA2 receptor; 1 μM agent, LPA2 cells): ≤ 15 min | concentration-response curve, receptor phosphorylation (LPA2 receptor; 15 min incubation, LPA2-overexpressing cells, shift to higher concentrations): no clear saturation was obtained | time to maximum receptor phosphorylation (LPA1 receptor [2]; 1 μM agent, LPA1 cells): ≤ 15 min | concentration at which receptor phosphorylation saturates (LPA1 receptor [2]; 15 min incubation, LPA1-overexpressing cells): ~ 1 μM | EC50 (LPA1 receptor [2]; 15 min incubation, LPA1-overexpressing cells, read-out: EC50, receptor phosphorylation): 10 to 30 nM
